Patent US12103932B2, “Process for preparing substituted imidazo[4,5-c]pyrazoles” (Imam Abdulrahman Bin Faisal University, priority 2021, dated 2024)

How the values were obtained:
Assay in all cases: Paper disk diffusion antibacterial test
Type in all cases: cell-based
[1] = tested on: Pseudomonas aeruginosa ATCC 27853
Procedure: (§1) In Vitro antimicrobial activity was evaluated using both gram-positive and gram-negative bacterial strains. The results reproduced here are exemplary and may include other microorganisms such as Escherichia coli, Listeria monocytogenes, Lactobacillus, yeast, vancomycin-resistant Enterococcus, molds, and spores. The in vitro antibacterial activity was evaluated for. gram-positive bacteria (Staphylococcus aureus ATCC 29213 and Staphylococcus epidermidis ATCC 12228) and gram-negative bacteria (Pseudomonas aeruginosa ATCC 27853) obtained from King Fahd Hospital, AlKhobar, Saudi Arabia.
(§2) Antimicrobial activity of three imidazopyrazole derivatives (1), (2) and (3) were evaluated qualitatively by paper disk diffusion method [CLSI.; Approved Standard, 11th ed.; CLSI document M02-A11; Clinical and Laboratory Standards Institute: Wayne, PA, USA, 2012, incorporated herein by reference in its entirety]. The three chemical materials i.e. compounds (1), (2) and (3) were prepared in different concentrations as follows: 0.01, 0.02, 0.03, 0.05, and 0.1 g/mL in dimethyl sulfoxide (DMSO) and tested directly. Paper discs measured 6 mm in diameter were soaked separately with 100 μL of the chemical materials and were left to dry. Bacterial inoculums were prepared from previous cultures in Muller-Hinton broth. The bacterial cell suspension turbidity was adjusted to a 0.5 McFarland standard, which represented approximately 1-2×10^8 colony-forming units (CFU)/mL using a Biomerieux DensiCHEK plus meter device (Missouri, MO, USA). Bacterial inoculums at 0.5 mL were transferred to petri plates under sterilized conditions. Melted Muller-Hinton agar at approximately 50° C. was poured over the inoculums, and to ensure even distribution of the inoculums, the plates were rotated neatly, then cultures were left to harden for 5 min. Then, previously prepared paper discs, saturated with chemicals, were transferred, using sterilized forceps, to the surface of petri plates that contained the bacterial cultures. Gentamicin (CN10 μg), aminoglycosides antibiotic was used as the positive control and DMSO was used as the negative control. The petri plates were placed in the refrigerator (General Electric, Medford, MA, USA) to allow diffusion of the chemicals into the agar for an hour. Then the petri plates were incubated at 37° C. for 24 h. After the incubation period ended, the area of inhibition around the discs was measured with a ruler. Three replicants were made to ensure the accuracy of the experiment.

[2] = tested on: Staphylococcus aureus ATCC 29213
Procedure: as §1, §2

[3] = tested on: Staphylococcus epidermidis ATCC 12228
Procedure: as §1, §2

[4] = 0.05 g/mL in DMSO, 6 mm paper disc, 37° C. 24 h
[5] = 0.1 g/mL in DMSO, 6 mm paper disc, 37° C. 24 h

Row | Compound | zone of inhibition (mm) means ± SD [1, 4] [mm] | zone of inhibition (mm) means ± SD [1, 5] [mm] | zone of inhibition (mm) means ± SD [2, 4] [mm] | zone of inhibition (mm) means ± SD [2, 5] [mm] | area of inhibition zone compared with positive control gentamicin ([2]; at the concentrations 0.05 g/mL and 0.01 g/mL, gentamicin CN10 μg) | zone of inhibition (mm) means ± SD [3, 4] [mm] | zone of inhibition (mm) means ± SD [3, 5] [mm] | zone of inhibition (mm) means ± SD ([1]; positive control, CN10 μg disc) [mm] | zone of inhibition (mm) means ± SD ([2]; positive control, CN10 μg disc) [mm] | zone of inhibition (mm) means ± SD ([3]; positive control, CN10 μg disc) [mm]
1 | CC1=NN(c2ccccc2)C2=NC(NC(N)=S)=NC12 (stereo not shown) [(2), 1-(3-Methyl-1-Phenyl-1,3a-Dihydroimidazo[4,5-c] Pyrazol-5-yl) Thiourea] | 7.7 ± 0.6 | 8.3 ± 0.6 | 18.0 ± 0.0 | 18.7 ± 0.6 | equal to gentamicin | 8.3 ± 0.6 | 9.3 ± 0.6 | – | – | –
2 | CC1=NN(c2ccccc2)C2=NC(=S)NC12 (stereo not shown) [(1), 3-Methyl-1-Phenyl-3a,4-Dihydro Imidazo(4,5-c) Pyrazole-5(1H)-Thione] | 10.0 ± 1.0 | 11.0 ± 1.0 | 7.7 ± 0.6 | 9.0 ± 1.0 | – | 8.3 ± 0.6 | 8.3 ± 0. | – | – | –
3 | Gentamicin [reference compound] | – | – | – | – | – | – | – | 20.7 ± 1.2 | 18.7 ± 1.5 | 21.3 ± 1.2
4 | CCOC(=O)CSC1=NC2C(C)=NN(c3ccccc3)C2=N1 (stereo not shown) [(3), Ethyl 2-((3-Methyl-1-Phenyl-1,3adihydroimidazo[4,5-c] Pyrazol-5-yl)thio) Acetate] | 7.3 ± 0.6 | 7.3 ± 0.6 | 7.3 ± 0.6 | 8.7 ± 0.6 | – | 7.3 ± 0.6 | 8.7 ± 0.6 | – | – | –
